Laboratory results: patent US20210153516A1, “COMPOSITION AND METHOD OF TREATING PLANTS AND PLANT PARTS WITH VOLATILE SPOILAGE ORGANISM CONTROLLING ACTIVES” (AGROFRESH INC., priority 2019, published 2021)

How the values were obtained:
B. cinerea [1] = assay: B. cinerea infection assessment for blueberries after thermal fogging (Example 4); format: in vivo, Botrytis cinerea
Protocol: (§1) The experiment was conducted by 1) setting up a 4.3 m^3 rectangular plastic tent, 2) placing blueberries in open clamshells in the tent, 3) preparing a foggable formulation by dissolving volatile compound into a solvent mixture containing 50% w/w propylene glycol, 47.8% w/w isopropyl alcohol, 2% w/w sorbitan mono-oleate, and 0.2% of citric acid to achieve about 10% w/w volatile compound, 4) inoculating the blueberries before treatment, 5) applying the formulation through a thermal fogger with set temperature at 200° C. and flow rate of about 70 ml/min, and target use rate of 10 mg active ingredient per kg of blueberries, and 6) storing the blueberries under refrigerated condition of about 4° C. after treatment, and at room temperature to incubate for observation of disease infections.
B. cinerea infection was assessed at 13, 16, and 24 days incubation time under room temperature shelf life conditions for both untreated blueberry in isolation, untreated blueberry placed adjacent to the treated blueberry six days after the treatment, and the treated blueberries.

[2] = system: Penicillium digitatum (Green mold) and Penicillium italicum (Blue mold); assay: Green mold and Blue mold infection assessment for mandarins after dipping treatment; format: in vivo; settings: equally mixed mandarins of untreated and treated (dip about 60 seconds); 10 days incubation at room temperature
Protocol: The experiment was conducted by 1) preparing a dipping treatment solution by diluting 360 ml concentrated formulation containing 10% w/w volatile compound, 45% w/w propylene glycol, 43.02% w/w isopropanol, 1.8% w/w sorbitan mono-oleate, 0.18% w/w citric acid into 60 L water, 2) dipping a box of mandarins into the treatment solution bath for about 60 seconds, 3) after air drying of the mandarins, preparing a box of mandarins containing 50% untreated mandarins and 50% treated mandarins, 4) storing the mandarins under 3-5° C. refrigerated conditions for 7 days, and then storing at room temperature with high humidity to incubate for disease observations. Penicillium digitatum (Green mold) and Penicillium italicum (Blue mold) infection incidence of the mandarins was assessed at 10 days incubation time under room temperature shelf life conditions for both untreated mandarins in isolation and equally mixed untreated and treated mandarins to simulate uneven drench or dip treatment applications.

[3] = system: Penicillium digitatum (Green mold) and Penicillium italicum (Blue mold); assay: Green mold and Blue mold infection assessment for mandarins after spray treatment; format: in vivo; settings: equally mixed mandarins of untreated and treated (spray 60 ml treatment solution per box); 10 days incubation at room temperature
Protocol: The experiment was conducted by 1) preparing a spray treatment solution by diluting […] concentrated formulation containing 10% w/w volatile compound, 45% w/w propylene glycol, 43.02% w/w isopropanol, 1.8% w/w sorbitan mono-oleate, 0.18% w/w citric acid into 1 L water, 2) spraying a box of mandarins with the use rate of 60 ml treatment solution per box, 3) after air drying of the mandarins, preparing a box of mandarins containing 50% untreated mandarins and 50% treated mandarins, 4) storing the mandarins under 3-5° C. refrigerated conditions for 7 days, and then storing at room temperature with high humidity to incubate for disease observations. Penicillium Digitatum (Green mold) and Penicillium italicum (Blue mold) infection incidence of the mandarins was assessed at 10 days incubation time under room temperature shelf life conditions for both untreated mandarins in isolation and equally mixed untreated and treated mandarins to simulate uneven spray treatment applications.

[4] = system: B. cinerea (Botrytis cinerea or Gray mold); assay: B. cinerea infection assessment for blueberries after thermal fogging (Example 3); format: in vivo; settings: untreated blueberries placed adjacent to treated blueberries one day after treatment, 10 mg active ingredient per kg
Protocol: as §1
B. cinerea (Botrytis cinerea or Gray mold) infection was assessed at 4 and 13 days incubation time for both untreated blueberries in isolation and untreated blueberries placed adjacent to the treated blueberries one day after the treatment.

B. cinerea [5] = assay: B. cinerea infection assessment for strawberries after dipping treatment; format: in vivo, Botrytis cinerea
Protocol: The experiment was conducted by 1) preparing a dipping treatment solution by dissolving volatile compound into 20% v/v isopropanol water solution to achieve 10 ppm concentration, 2) pre-inoculate all the strawberries before treatment, 3) dipping strawberries in the prepared solution for 30 seconds, 4) storing the strawberries under refrigerated conditions and at room temperature to incubate for disease observations. B. cinerea infection was assessed at 3 and 5 days incubation time for both untreated strawberries in isolation and untreated strawberries placed adjacent to the treated strawberries.

[6] = treated blueberries, thermal fogging 10 mg active ingredient per kg, 13 days incubation
[7] = treated blueberries, thermal fogging 10 mg active ingredient per kg, 16 days incubation
[8] = treated blueberries, thermal fogging 10 mg active ingredient per kg, 24 days incubation
[9] = untreated blueberries placed adjacent to treated blueberries 6 days after treatment, 13 days incubation
[10] = untreated blueberries placed adjacent to treated blueberries 6 days after treatment, 16 days incubation
[11] = untreated blueberries placed adjacent to treated blueberries 6 days after treatment, 24 days incubation

Work on `OB1OCc2cc(F)ccc21` [5-fluoro-1-hydroxy-3H-2,1-benzoxaborole] yielded a B. cinerea incidence (B. cinerea [1]; [6]) of 2.8%, a B. cinerea severity (B. cinerea [1]; [6]) of 1.1% and a B. cinerea incidence (B. cinerea [1]; [7]) of 2.8%. For the same compound, the B. cinerea severity (B. cinerea [1]; [7]) was 1.1%, the B. cinerea incidence (B. cinerea [1]; [8]) was 5.6% and the B. cinerea severity (B. cinerea [1]; [8]) was 3.3%. For the same compound, the B. cinerea incidence (B. cinerea [1]; [9]) was 16.7%, the B. cinerea severity (B. cinerea [1]; [9]) was 4.7% and the B. cinerea incidence (B. cinerea [1]; [10]) was 23.0%. For the same compound, the B. cinerea severity (B. cinerea [1]; [10]) was 6.2%, the B. cinerea incidence (B. cinerea [1]; [11]) was 33.3% and the B. cinerea severity (B. cinerea [1]; [11]) was 15.0%. For the same compound, the “Green and Blue mold incidence” value [2] was 4.1%, the “Green and Gray molds incidence” value [3] was 0.64% and the B. cinerea incidence ([4]; 4 days incubation) was 2.6%. It also gave a B. cinerea severity ([4]; 4 days incubation) of 0.2%, a B. cinerea incidence ([4]; 13 days incubation) of 19.2% and a B. cinerea severity ([4]; 13 days incubation) of 10.6%. It also gave a B. cinerea severity (B. cinerea [5]; treated strawberries, dipped 30 seconds in 10 ppm solution, 3 days incubation) of 0.0%, a B. cinerea severity (B. cinerea [5]; treated strawberries, dipped 30 seconds in 10 ppm solution, 5 days incubation) of 0.0% and a B. cinerea severity (B. cinerea [5]; untreated strawberries placed adjacent to treated strawberries, 3 days incubation) of 5.4%. The B. cinerea severity (B. cinerea [5]; untreated strawberries placed adjacent to treated strawberries, 5 days incubation) was 43.8%.
